The source of these data is US4833268A, “Threo-adrenalinecarboxylic acid, and the production and uses thereof” (Zaidan Hojin Biseibutsu Kagaku Kenkyu Kai, priority 1982, dated 1989).

The format of series [1] is in vivo, mice. The note with it: 500 mg/kg i.p., whole brain 90 minutes after administration.
Description: 90 Minutes after the i.p. administration, the whole brain portion was removed surgically from the mice. The quantity of the threo-adrenalinecarboxylic acid or the quantity of the threo-DOPS which was transferred into and accumulated in the brain portion of mice, as well as the quantity of adrenaline in the brain portion of mice were determined by a high-performance liquid chromatography.
The next series has as its system harmaline-induced tremor. The series can be described thus: Test 1: inhibitory activity against harmaline-induced tremor. Format: in vivo, ddY-strain mice. The note with it: for Reduction (%) in the duration of tremor action: 30 minutes before harmaline 10 mg/kg i.p., relative to harmaline-only control. How it is done: This test was made according to one usual method for screening antiparkinsonian drugs which determines inhibitory activity against harmaline-induced tremor.
ddY-strain Mice (male, body weight 20-30 g, five in each group) were used as test animal for respective tests. The new compound, DL-threo-adrenalinecarboxylic acid according to this invention, was intraperitoneally administered to each of the mice at a dosage of 400 mg/kg or […], and after the lapse of 30 minutes harmaline was also intrapenitoneally injected to the same mice at a dosage of 10 mg/kg. Then, the duration of tremor action as induced in the mice under test was observed and recorded. The rate (percentage) of reduction in the duration of tremor action in relation to the control group of mice to which only harmaline was administered in the same dosage was calculated by the equation given below. By way of comparison DL-threo-3-(3,4-dihydroxyphenyl)serine (i.e. DL-threo-DOPS) in a dosage of 400 mg/kg was tested in the same manner as above. [formula]

The subject of series [2] is reserpine-induced decrease in the body temperature and muscular rigidity. The series can be described thus: Test 3: reserpine-induced decrease in body temperature and muscular rigidity (reserpine 2.5 mg/kg s.c.). The note with it: for Body Temperature (°C.) (Average ± Standard deviation) 24 Hours after administration of reserpine: 800 mg/kg group, 24 hours after reserpine 2.5 mg/kg s.c., before test compound; for Body Temperature (°C.) (Average ± Standard deviation) 1 Hour after administration of adrenaline carboxylic acid / Muscular Rigidity: number of mice exhibiting significant improvement in the muscular rigidity per the total number of mice in each group: given 24 hours after reserpine 2.5 mg/kg s.c.; for Body Temperature (°C.) (Average ± Standard deviation) Before administration of reserpine: baseline of the 800 mg/kg group, before reserpine and before test compound. The series is classed as in vivo, ddY-strain mice. Here is the method: After this, 800 mg/kg of L-threo-adrenalinecarboxylic acid or 800 mg/kg of D-threo-adrenalinecarboxylic acid or DL-threo-adrenalinecarboxylic acid synthetized according to this invention was intraperitoneally administered to the mice having received reserpine. One hour after the administration of the threo-adrenalinecarboxylic acid, the body temperature of the treated mice was determined. Estimation was also made about whether the muscular rigidity as induced by reserpine was improved by the administration of the threo-adrenalinecarboxylic acid of this invention.

The subject of series [3] is reserpine-induced decrease in the body temperature. The series is described as follows: Test 2: inhibition of reserpine-induced decrease in body temperature (reserpine 4 mg/kg i.p.). The series is classed as in vivo, ddY-strain mice. The following applies: for Body Temperature (°C.) 1 Hour after / Body Temperature (°C.) 2 Hours after: given 24 hours after reserpine 4 mg/kg i.p. How it is done: ddY-strain Mice (male, body weight 20-30 g, five in each group) were used as the test animal for respective tests. Reserpine was intraperitoneally administered to each mouse at a dose of 4 mg/kg. 24 Hours later, the decreased body temperature of the mice was observed and recorded. After this, 1500 mg/kg or 2000 mg/kg of DL-threo-adrenalinecarboxylic acid was intraperitoneally administered to each of the mice having received reserpine. At the end of 1 hour and at the end of 2 hours after the administration of the DL-threo-adrenalinecarboxylic acid, the body temperature of these treated mice was determined and shown in Table 3 below.

A further series is described as follows: Test 4: acute toxicity. The following applies: i.p., 0.5 ml per mouse of 20 mg/ml suspension in 0.5% CMC. How it is done:
This test is carried out to examine acute toxicity of the DL-threo-adrenalinecarboxylic acid.
To DDB4-strain mice (male, body weight 23-28 g, six in each group) was intraperitoneally administered at a dosage of 0.5 ml per mouse a suspension containing 20 mg/ml of DL-threo-adrenalinecarboxylic acid dispersed in an aqueous solution of 0.5% carboxymethylcellulose (CMC). The mice were then raised under normal conditions for 7 days after the administration of the compound. During these 7 days, the mice were observed and estimated with regard to their body weight, the quantity of feedstock and the quantity of water which were taken by the mice.

For series [4] the following is noted: cited from earlier work; for levels of noradrenaline in heart and brain: intraperitoneal administration of high dosages; for accumulation of noradrenaline in brain: after intraperitoneal administration, rats; for decarboxylation in vivo, leading to accumulation of noradrenaline in heart: intraperitoneally administered in rats.
The nature of series [5]: Test 7: in vitro decarboxylation by supernatant of mouse whole brain homogenate. The note with it: mouse, brain homogenate supernatant, pH 8. How it is done: (§1) The whole brains of mice of ddY-strain were homogenized and the resulting brain homogenate was diluted with the same volume of a buffere solution (comprising 50 mM Tris-HCl (pH 8.6, 1.5 mM EDTA.2Na); 0.5 mM Pridoxal-5-Phosphate; 1 mM Nialamide; and 0.85 mM L-ascorbic acid), and the mixture was centrifuged at 10,000 g to give a supernatant liquid containing the brain enzymes. To this supernatant liquid (500 μl) was added a solution containing 4.5 mM of a substrate selected from L-threo-adrenalinecarboxylic acid, L-threo-DOPS and L-DOPA. The mixture obtained (pH ca. 8, 1.0 ml) was incubated for 30 minutes at 37° C., followed by quantitative determination of adrenaline, noradrenaline or dopamine formed as the reaction product catecholamine.
(§2) The determination of the catecholamine as produced (adrenaline, noradrenaline or […]) was made according to the following procedure: Thus, the incubated mixture was admixed with aqueous 6% perchloric acid (PCA) for stopping the enzymatic reactions, and the reaction solution so obtained was de-salted by adding thereto potassium carbonate to precipitate the potassium perchlorate, and removing the precipitate by filtration. The de-salted reaction solution was passed through a column of Amberlite CG-50 as developed with 250 μl of 2N-PCA solution and then with 250μl of water. The eluate was analyzed by a high performance liquid chromatography under the following conditions:
(§3) Mobile Phase: 0.1M Citrate buffer (pH 4.3)-methanol(9:1) containing 0.0025M 1-octane sulfonic acid sodium salt
(§4) Column temperature: 40° C.
(§5) Applied voltage: 600 mV vs. Ag/AgCl.
(§6) The yield of the catecholamine as formed was calculated in term of percentages based on the quantity of the substrate charged, and this calculated yield denotes the rate of decarboxylation of the substrate compound (in %).

Series [6] concerns brain enzymes (homogenate of the whole brains of mice). Described as above. Here is the method: as §1, §2, §3, §4, §5, §6
A short description of series [7]: Test 6: brain concentration of 14C-labelled compound after intravenous administration. Format: in vivo, C57 Black-strain mice. The note with it: administered intraperitoneally or intravenously in mice.
Description: After a last injection of heparin, the treated mice were anesthetized with ethylether and the breast opened surgically. The blood was withdrawn from the heart and the lower portion of the heart ventricle was cut off. A catheter was inserted at the ventricle into the artery and fixed by means of binding threads. The two veins at the neck were opened surgically, and immediately physiological saline was injected through said catheter so that the remaining blood was entirely withdrawn at the opened veins together with the washing saline. The whole brain was removed from the sacrificed mouse, and the whole brain was dried in air at ambient temperature overnight.

Read-outs that look alike come from different tables or passages of the source. Some results are limits rather than exact numbers.

With `N[C@H](C(=O)O)[C@H](O)c1ccc(O)c(O)c1` (relative stereo) [DL-threo-DOPS, DL-threo-3-(3,4-dihydroxyphenyl)serine, reference compound], the “Quantity (as average) of the administered compound present in brain” value in series [1] is recorded as “Not detectable”. Besides, the “Reduction (%) in the duration of tremor action” value (shortened to “Reduction (%) in the duration”) with harmaline-induced tremor (400 mg/kg i.p.) amounted to 26%.

Consider `CN[C@H](C(=O)O)[C@H](O)c1ccc(O)c(O)c1` (relative stereo) [DL-threo-adrenalinecarboxylic acid, DL-threo-3-(3,4-dihydroxyphenyl)-N-methylserine], for which, in series [2], the “Body Temperature (°C.) (Average ± Standard deviation) 24 Hours after administration of reserpine” value is 34.9 ± 0.7 °C and the “Body Temperature (°C.) (Average ± Standard deviation) Before administration of reserpine” value is 39.1 ± 0.2 °C. In series [2] (800 mg/kg i.p.), the “Body Temperature (°C.) (Average ± Standard deviation) 1 Hour after administration of adrenaline carboxylic acid” value came out at 36.9 ± 0.3 °C and the “Muscular Rigidity: number of mice exhibiting significant improvement in the muscular rigidity per the total number of mice in each group” value is 0/5. Besides, in [1], the “Quantity (as average) of the administered compound present in brain” value was found to be 2.0 n mole/g. Further, the “Quantity (as average) of adrenaline in brain” value in series [1] (not administered: 0.37 n mole/g) turned out to be 0.44 n mole/g. Moreover, in series [3] (1500 mg/kg i.p.), the “Body Temperature (°C.) 1 Hour after” value came out at 32.9 °C and the “Body Temperature (°C.) 2 Hours after” value came out at 32.6 °C. For the same molecule, in [3] (2000 mg/kg i.p.), the “Body Temperature (°C.) 1 Hour after” value turned out to be 34.0 °C and the “Body Temperature (°C.) 2 Hours after” value was 32.5 °C. Further, in series [3] (1500 or 2000 mg/kg i.p., compared to control mice receiving reserpine only), the “effect on reserpine-induced decrease in body temperature, in words” value was “inhibited the reserpine-induced decrease in the body temperature”. In the series with harmaline-induced tremor (400 mg/kg i.p.), the “Reduction (%) in the duration” value was 34%. Also, the “Reduction (%) in the duration” value in the series on harmaline-induced tremor (600 mg/kg i.p.) is listed as 37%. In addition, the “reduction in duration of tremor action, comparison in words” value with harmaline-induced tremor (i.p., harmaline 10 mg/kg) is “significantly superior to DL-threo-DOPS”. In addition, the “acute toxicity: body weight, quantity of feedstock and quantity of water taken, treated vs control group” value in “Test 4: acute toxicity” (7 days observation) is reported as “No diference could be detected”. Moreover, the “acute toxicity: anatomical examination, organ weights, bio-chemical tests of blood, tissue-pathological tests, treated vs control group” value in “Test 4: acute toxicity” (after 7 days) was “no significant difference existed”.

Regarding `N[C@@H](C(=O)O)[C@H](O)c1ccc(O)c(O)c1` [D-erythro-DOPS], in series [4], the “levels of noradrenaline in heart and brain” value is reported as “slight increase”.

As to `N[C@@H](C(=O)O)[C@@H](O)c1ccc(O)c(O)c1` [D-threo-DOPS], the “levels of noradrenaline in heart and brain” value in series [4] is “slight increase”.

Regarding `CN[C@@H](C(=O)O)[C@@H](O)c1ccc(O)c(O)c1` [D-threo-adrenalinecarboxylic acid], in series [2], the “Body Temperature (°C.) (Average ± Standard deviation) 24 Hours after administration of reserpine” value was determined as 36.0 ± 0.5 °C and the “Body Temperature (°C.) (Average ± Standard deviation) Before administration of reserpine” value turned out to be 38.9 ± 0.2 °C. For the same molecule, in series [2] (800 mg/kg i.p.), the “Body Temperature (°C.) (Average ± Standard deviation) 1 Hour after administration of adrenaline carboxylic acid” value came to 35.9 ± 0.5 °C and the “Muscular Rigidity: number of mice exhibiting significant improvement in the muscular rigidity per the total number of mice in each group” value was 0/5.

The molecule `N[C@@H](Cc1ccc(O)c(O)c1)C(=O)O` [L-DOPA, L-3,4-dihydroxyphenylalanine] registered a metabolised at 0.5 h, 4500 µM in series [5] of more than 11.7%.

Take `N[C@H](C(=O)O)[C@@H](O)c1ccc(O)c(O)c1` [L-erythro-DOPS]: in [4], the “accumulation of noradrenaline in brain” value is “significant” and the “decarboxylation in vivo, leading to accumulation of noradrenaline in heart” value was “readily decarboxylated in vivo”.

As to `N[C@H](C(=O)O)[C@H](O)c1ccc(O)c(O)c1` [L-threo-DOPS, L-threo-3-(3,4-dihydroxyphenyl)serine], the “decarboxylation in vitro by homogenate of whole brains of mice, in words” value in series [6] is reported as “can be decarboxylated into noradrenaline”. The same molecule had a metabolised at 0.5 h, 4500 µM in series [5] of more than 0.52%. The “accumulation of natural (l)-noradrenaline in the brain” value in [4] (after direct injection into a cerebral ventricle) is “marked”. Moreover, in series [4], the “accumulation of noradrenaline in brain” value was “negligible” and the “decarboxylation in vivo, leading to accumulation of noradrenaline in heart” value is “readily decarboxylated in vivo”.

Take `CN[C@H](C(=O)O)[C@H](O)c1ccc(O)c(O)c1` [L-threo-adrenalinecarboxylic acid, L-threo-3-(3,4-dihydroxyphenyl)-N-methylserine]: the “penetration through the blood-brain barrier, in words” value in series [7] is “can surprisingly penetrate and transfer through the blood-brain barrier into the brain”. In series [6] (in vitro, mouse whole brain homogenate), the “decarboxylation in vitro by homogenate of whole brains of mice, in words” value was “can hardly be decarboxylated into adrenaline”. In [5], this molecule registered a metabolised at 0.5 h, 4500 µM of less than 0.00031%. Besides, in [2], the “Body Temperature (°C.) (Average ± Standard deviation) 24 Hours after administration of reserpine” value amounted to 35.4 ± 0.4 °C and the “Body Temperature (°C.) (Average ± Standard deviation) Before administration of reserpine” value was determined as 39.0 ± 0.2 °C. Moreover, in [2] (800 mg/kg i.p.), the “effect on reserpine-induced decrease in body temperature, in words” value is listed as “remarkably inhibits the reserpine-induced decrease in the body temperature”; the “effect on reserpine-induced muscular rigidity, in words” value is on record as “remarkably improves (eliminates or weakens) the muscular rigidity”; the “Body Temperature (°C.) (Average ± Standard deviation) 1 Hour after administration of adrenaline carboxylic acid” value was found to be 38.7 ± 0.5 °C; the “Muscular Rigidity: number of mice exhibiting significant improvement in the muscular rigidity per the total number of mice in each group” value was 5/5.
